In assay [1] the target is T1, PAR1 (Homo sapiens (Human), UniProt P25116). Briefly: Inhibition of PAR1-mediated platelet aggregation induced by TRAP. It counts as cell-based. The note with it: TRAP-induced aggregation of washed platelets from healthy volunteer donors, 96-well format. The method, then: PAR1 determination method: inhibition of PAR1-mediated platelet aggregation
The pharmacological testing of the substances took place in platelet aggregation induced by TRAP (thrombin receptor-activating peptide) in 96-well format. For this purpose, blood was taken from healthy volunteer donors in 20 ml syringes containing 2 ml of 3.13% sodium citrate solution. After centrifugation at 150×g for 20 minutes, the platelet-rich plasma (PRP) was separated off and mixed with 1 μl of PGE1 solution (500 μg/ml in ethanol)/ml of PRP. Incubation at RT for 5 minutes was followed by centrifugation at 120×g for 15 minutes to remove the leukocytes. The leukocyte-free PRP was transferred in 5 ml portions into 15 ml PP tubes and centrifuged at 360×g for 15 minutes in order to pellet the platelets. The plasma was then decanted off and the platelet sediment from 5 ml of PRP was resuspended in 1 ml of Tyrode's (120 mM NaCl, 2.6 mM KCl, 12 mM NaHCO3, 0.39 mM NaH2PO4×H2O, 10 mM HEPES, 0.35% BSA, 5.5 mM glucose, pH 7.4) and adjusted with Tyrode's to a platelet count of 3×10^5/microliter (μL). 13 ml of this cell suspension were then mixed with 866 μL of 10 mM CaCl2 solution, and 120 μL thereof were pipetted into each well of a 96-well plate containing 15 μL of the substance to be tested. After incubation at room temperature in the dark for 30 minutes, 15 μL of a TRAP solution (70-100 μM) were added as agonist, and kinetics were recorded at 650 nm in a SpectraMax 340 at 37° C. for 20 minutes while shaking. The areas under the curves of negative control (Tyrode's/DMSO) and positive control (15 μl of agonist/DMSO) were calculated and the difference was fixed as the 100% value. The substances to be tested were pipetted as serial dilutions in duplicate determination, the AUC was likewise determined for each substance concentration, and the % inhibition of the AUC compared with the control was calculated. On the basis of the % inhibition, the IC50 was calculated by nonlinear regression analysis according to the 4-parameter equation.

Assay [2] has as its target T1, PAR1. Kind of assay: PAR1 binding test (radioligand displacement, membrane preparation). Conditions: human PAR1 expressed in High Five insect cell membranes; radioligand 20 nM; read-out: Inhibition of binding IC50. Here is the method: The synthesized substances were examined in a PAR1 binding test. This tested whether the substances can inhibit the binding of a radioactively labeled PAR1 agonist known from the literature at the PAR1 receptor (Ho-Sam Ahn, Mol Pharm, 51:350-356, 1997). The human PAR1 receptor was expressed transiently in High Five insect cells. From these cells, after 48 hours, a membrane preparation was produced by standard methods, aliquoted into 10 mM Tris-HCl; 0.3 mM EDTA; 1 mM EGTA; 250 mM sucrose pH 7.5, and stored at −80° C.
The substances were preincubated with the membrane at room temperature for 15 minutes, then the radioligand (ALA-(para-F-Phe)-Arg-ChA-homoArg-(3,4-^3H-Tyr)-NH2; approx. 40 Ci/mMol) was added. The end concentration of the radioligand in the test buffer (50 mM Tris-HCl; 10 mM MgCl2; 1 mM EGTA; 0.1% BSA; 2% DMSO) was 20 nM, that of the membrane 1 mg/ml. After an incubation time of 60 minutes, 25 μL of the mixture were transferred to a 96-well MultiScreenHTS FB microtiter filtration plate (from Millipore), which had been pretreated beforehand with a 0.75% aqueous polyethyleneimine solution for 5 hours at room temperature. Thereafter, with vacuum extraction, each well was washed four times with 300 μL of buffer (50 mM Tris-HCl; 10 mM MgCl2; 1 mM EGTA). The plate was then dried overnight, 100 μl of scintillator per well were added, and the plate was analyzed after 6 hours in a Wallac MicroBeta (from PerkinElmer) liquid scintillation counter. The nonspecific binding was determined in the presence of 100 μM SCH79797 (PAR-1 antagonist; from Tocris, Cat. No. 1592) and subtracted from all measurements. The 100% value used was a control without inhibitor. The % inhibition values of a substance dilution series were used to calculate the IC50 with the aid of nonlinear regression analysis according to the 4-parameter equation.

pIC50: −log10 of the molar value. Counter-ions that a name gives are not always drawn.

T1 sequence (P25116 22-425): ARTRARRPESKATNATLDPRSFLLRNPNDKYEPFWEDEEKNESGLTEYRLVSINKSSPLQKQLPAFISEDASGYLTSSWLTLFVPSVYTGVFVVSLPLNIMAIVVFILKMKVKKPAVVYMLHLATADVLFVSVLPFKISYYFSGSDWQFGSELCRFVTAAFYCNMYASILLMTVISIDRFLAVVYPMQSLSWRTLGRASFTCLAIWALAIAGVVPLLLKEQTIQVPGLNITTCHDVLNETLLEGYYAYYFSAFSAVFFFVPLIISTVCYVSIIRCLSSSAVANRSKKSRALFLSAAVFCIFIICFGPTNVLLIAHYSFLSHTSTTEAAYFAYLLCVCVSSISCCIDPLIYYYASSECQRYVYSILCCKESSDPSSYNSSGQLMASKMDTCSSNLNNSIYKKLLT

By pIC50 is commonly meant the negative decadic logarithm of the IC50, by convention in mol/L. Turning to `CCOc1ccc2nn(CC(=O)c3cc(N4CCOCC4)c(OC)c(C(C)(C)C)c3)c(=N)n2n1` [Example 7, 1-(3-tert-butyl-4-methoxy-5-morpholin-4-ylphenyl)-2-(6-ethoxy-3-imino-[1,2,4]triazolo[4,3-b]pyridazin-2-yl)ethanone trifluoroacetic acid salt], the pIC50 against PAR1 [1] was 6.80.

With `CCC(CC)Oc1cc(C)c2nn(CC(=O)c3cc(COCCCO)cc(C(C)(C)C)c3)c(=N)n2n1` [Example 77, 1-[3-tert-butyl-5-(3-hydroxy-propoxymethyl)phenyl]-2-[6-(1-ethylpropoxy)-3-imino-8-methyl-[1,2,4]triazolo[4,3-b]-pyridazin-2-yl]ethanone hydrochloride], the pIC50 on PAR1 [1] was 8.05.

On PAR1 [1], `CC(C)(C)c1cc(C(=O)Cn2nc3ccc(Cl)nn3c2=N)cc(C(C)(C)C)c1O` [Example 2, 2-(6-chloro-3-imino-[1,2,4]triazolo[4,3-b]pyridazin-2-yl)-1-(3,5-di-tert-butyl-4-hydroxyphenyl)ethanone] showed a pIC50 of 5.80.

As to `CCOc1ccc2nn(CC(=O)c3cc(NC(C)=O)cc(S(F)(F)(F)(F)F)c3)c(=N)n2n1` [Example 1, N-[3-[2-(6-Ethoxy-3-imino-[1,2,4]triazolo[4,3-b]pyridazin-2-yl)acetyl]-5-(pentafluorosulfanyl)phenyl]acetamide as the trifluoroacetic acid salt], on PAR1 [1], the pIC50 was 6.19.

With `CCN(CC)c1cc(C)c2nn(CC(=O)c3cc(OC)cc(S(F)(F)(F)(F)F)c3)c(=N)n2n1` [Example 108, 2-(6-diethylamino-3-imino-8-methyl-[1,2,4]triazolo[4,3-b]pyridazin-2-yl)-1-[3-methoxy-5-(pentafluorosulfanyl)phenyl]-ethanone trifluoroacetic acid salt], at PAR1 [1], the pIC50 is 7.80.

Compound `CCC(CC)Oc1cc(C)c2nn(CC(=O)c3cc(OCCOC)cc(C(C)(C)C)c3)c(=N)n2n1` [Example 66, 1-[3-tert-butyl-5-(2-methoxy-ethoxy)phenyl]-2-[6-(1-ethylpropoxy)-3-imino-8-methyl-[1,2,4]triazolo[4,3-b]pyridazin-2-yl]ethanone hydrochloride] gave a pIC50 against PAR1 [1] of 7.60.

`CCC(CC)Oc1cc(C)c2nn(CC(=O)c3cc(OCCCO)cc(C(C)(C)C)c3)c(=N)n2n1` [Example 90, 1-[3-tert-butyl-5-(3-hydroxy-propoxy)phenyl]-2-[6-(1-ethyl-propoxy)-3-imino-8-methyl-[1,2,4]triazolo[4,3-b]pyridazin-2-yl]ethanone hydrochloride] showed a pIC50 against PAR1 [1] of 7.92.

On PAR1 [1], `COCC(COC)Oc1cc(C)c2nn(CC(=O)c3cc(OCCO)cc(C(C)(C)C)c3)c(=N)n2n1` [Example 98, 1-[3-tert-butyl-5-(2-hydroxy-ethoxy)phenyl]-2-[3-imino-6-(2-methoxy-1-methoxymethyl-ethoxy)-8-methyl-[1,2,4]triazolo[4,3-b]pyridazin-2-yl]ethanone hydrochloride] had a pIC50 of 6.48.

`CCOc1ccc2nn(CC(=O)c3cc(N4CCOCC4)c(OC)c(C(F)(F)F)c3)c(=N)n2n1` [Example 5, 2-(6-Ethoxy-3-imino-[1,2,4]triazolo[4,3-b]pyridazin-2-yl)-1-(4-methoxy-3-morpholin-4-yl-5-trifluormethylphenyl)ethanone trifluoroacetic acid salt] gave a pIC50 at PAR1 [1] of 5.07.

For `CCC(CC)Oc1nn2c(=N)n(CC(=O)c3cc(OC)cc(S(F)(F)(F)(F)F)c3)nc2c(C)c1C` [Example 85, 2-[6-(1-ethylpropoxy)-3-imino-7,8-dimethyl-[1,2,4]triazolo[4,3-b]pyridazin-2-yl]-1-[3-methoxy-5-(pentafluorosulfanyl)-phenyl]ethanone trifluoroacetic acid salt], the pIC50 at PAR1 [1] was 7.23.

`CCC(CC)Oc1ccc2nn(CC(=O)c3cc(N4CCOCC4)c(OC)c(C(C)(C)C)c3)c(=N)n2n1` [Example 14, 1-(3-tert-butyl-4-methoxy-5-morpholin-4-ylphenyl)-2-[6-(1-ethylpropoxy)-3-imino-[1,2,4]triazolo[4,3-b]pyridazin-2-yl)ethanone trifluoroacetic acid salt]: the pIC50 at PAR1 [2] was 6.55.

Take `CCC(CC)Oc1cc(C)c2nn(CC(=O)c3cc(OCCO)cc(C(C)(C)C)c3)c(=N)n2n1` [Example 89, 1-[3-tert-butyl-5-(2-hydroxyethoxy)phenyl]-2-[6-(1-ethylpropoxy)-3-imino-8-methyl-[1,2,4]triazolo[4,3-b]pyridazin-2-yl]ethanone hydrochloride]: on PAR1 [2], the negative-log IC50 (pIC50) was 6.97.

As for `CCC(CC)Oc1ccc2nn(CC(=O)c3cc(NC)cc(S(F)(F)(F)(F)F)c3)c(=N)n2n1` [Example 16, 2-[6-(1-ethylpropoxy)-3-imino-[1,2,4]triazolo[4,3-b]pyridazin-2-yl]-1-[3-methylamino-5-(pentafluorosulfanyl)phenyl]ethanone trifluoroacetic acid salt], at PAR1 [1], the pIC50 is 6.90.

For the compound `CCOc1nn2c(=N)n(CC(=O)c3cc(OCCCF)cc(C(C)(C)C)c3)nc2c(C)c1C` [Example 222, 1-[3-tert-butyl-5-(3-fluoro-propoxy)phenyl]-2-(6-ethoxy-3-imino-7,8-dimethyl-[1,2,4]triazolo[4,3-b]pyridazin-2-yl)ethanone hydrochloride], the pIC50 on PAR1 [2] is 6.38.

For the origin of these results see patent publication US9079906B2, “Triazolopyridazines as PAR1 inhibitors, production thereof, and use as medicaments” (Sanofi, priority 2008, dated 2015).
